pIC50: −log10 of the molar value. Converted amounts (≈) assume the structure as drawn.
Key:
[1] = test system: HCC827; assay: Antiproliferative activity against human HCC827 cells after 72 hrs by MTT assay; assay type: functional, cell-based; details: HCC827, 72 h
[2] = test system: NCI-H1975; assay: Antiproliferative activity against human NCI-H1975 cells after 72 hrs by MTT assay; assay type: functional, cell-based; details: NCI-H1975, 72 h
[3] = test system: NCI-H460; assay: Antiproliferative activity against human H460 cells after 72 hrs by MTT assay; assay type: functional, cell-based; details: NCI-H460, 72 h
[4] = test system: A549; assay: Antiproliferative activity against human A549 cells after 72 hrs by MTT assay; assay type: functional, cell-based; details: A549, 72 h
[5] = Antiproliferative activity against human SPC-A1 cells after 72 hrs by MTT assay; assay type: functional, cell-based; details: SPCA1, 72 h
[6] = test system: NCI-H1650; assay: Antiproliferative activity against human NCI-H1650 cells after 72 hrs by MTT assay; assay type: functional, cell-based; details: NCI-H1650, 72 h
[7] = test system: PC-9; assay: Antiproliferative activity against human PC9 cells after 72 hrs by MTT assay; assay type: functional, cell-based; details: PC-9, 72 h
[8] = test system: NCI-H441; assay: Antiproliferative activity against human H441 cells after 72 hrs by MTT assay; assay type: functional, cell-based; details: NCI-H441, 72 h
[9] = test system: NCI-H358; assay: Antiproliferative activity against human NCI-H358 cells after 72 hrs by MTT assay; assay type: functional, cell-based; details: NCI-H358, 72 h
[10] = Apparent aqueous solubility of the compound by HPLC analysis; assay type: physicochemical; details: aqueous solution
[11] = test system: NCI-H1975; assay: Cell cycle arrest in human NCI-H1975 cells assessed as increase in accumulation at G0/G1 phase after 24 hrs by propidium iodide staining-based flow cytometric analysis; assay type: functional
[12] = test system: NCI-H1975; assay: Cell cycle arrest in human NCI-H1975 cells assessed as reduction in accumulation at S phase after 24 hrs by propidium iodide staining-based flow cytometric analysis; assay type: functional
[13] = test system: NCI-H1975; assay: Cell cycle arrest in human NCI-H1975 cells assessed as reduction in accumulation at G2/M phase after 24 hrs by propidium iodide staining-based flow cytometric analysis; assay type: functional
[14] = test system: NCI-H1975; assay: Cell cycle arrest in human NCI-H1975 cells assessed as accumulation at G0/G1 phase at 5 uM after 24 hrs by propidium iodide staining-based flow cytometric analysis (reference value: 56.11%); assay type: functional
[15] = test system: NCI-H1975; assay: Cell cycle arrest in human NCI-H1975 cells assessed as accumulation at S phase at 5 uM after 24 hrs by propidium iodide staining-based flow cytometric analysis (reference value: 22.93%); assay type: functional
[16] = test system: NCI-H1975; assay: Cell cycle arrest in human NCI-H1975 cells assessed as accumulation at G2/M phase at 5 uM after 24 hrs by propidium iodide staining-based flow cytometric analysis (reference value: 20.11%); assay type: functional
[17] = test system: NCI-H1975; assay: Cell cycle arrest in human NCI-H1975 cells assessed as accumulation at G0/G1 phase at 10 uM after 24 hrs by propidium iodide staining-based flow cytometric analysis (reference value: 56.11%); assay type: functional
[18] = test system: NCI-H1975; assay: Cell cycle arrest in human NCI-H1975 cells assessed as accumulation at S phase at 10 uM after 24 hrs by propidium iodide staining-based flow cytometric analysis (reference value: 22.93%); assay type: functional
[19] = test system: NCI-H1975; assay: Cell cycle arrest in human NCI-H1975 cells assessed as accumulation at G2/M phase at 10 uM after 24 hrs by propidium iodide staining-based flow cytometric analysis (reference value: 20.11%); assay type: functional
[20] = test system: NCI-H1975; assay: Cell cycle arrest in human NCI-H1975 cells assessed as accumulation at G0/G1 phase at 20 uM after 24 hrs by propidium iodide staining-based flow cytometric analysis (reference value: 56.11%); assay type: functional
[21] = test system: NCI-H1975; assay: Cell cycle arrest in human NCI-H1975 cells assessed as accumulation at S phase at 20 uM after 24 hrs by propidium iodide staining-based flow cytometric analysis (reference value: 22.93%); assay type: functional
[22] = test system: NCI-H1975; assay: Cell cycle arrest in human NCI-H1975 cells assessed as accumulation at G2/M phase at 20 uM after 24 hrs by propidium iodide staining-based flow cytometric analysis (reference value: 20.11%); assay type: functional
[23] = test system: NCI-H1975; assay: Induction of apoptosis in human NCI-H1975 cells after 48 hrs by annexin V/FITC-propidium iodide staining-based flow cytometric method; assay type: functional, cell-based
[24] = test system: NCI-H1975; assay: Induction of apoptosis in human NCI-H1975 cells assessed as early apoptotic cells at 5 uM after 48 hrs by annexin V/FITC-propidium iodide staining-based flow cytometric method ( Rvb = 6.09%); assay type: functional
[25] = test system: NCI-H1975; assay: Induction of apoptosis in human NCI-H1975 cells assessed as late apoptotic cells at 5 uM after 48 hrs by annexin V/FITC-propidium iodide staining-based flow cytometric method ( Rvb = 10.4%); assay type: functional
[26] = test system: NCI-H1975; assay: Induction of apoptosis in human NCI-H1975 cells assessed as necrotic cells at 5 uM after 48 hrs by annexin V/FITC-propidium iodide staining-based flow cytometric method ( Rvb = 1.01%); assay type: functional
[27] = test system: NCI-H1975; assay: Induction of apoptosis in human NCI-H1975 cells assessed as viable cells at 5 uM after 48 hrs by annexin V/FITC-propidium iodide staining-based flow cytometric method ( Rvb = 82.5%); assay type: functional; details: NCI-H1975, 48 h, read-out: Activity
[28] = test system: NCI-H1975; assay: Induction of apoptosis in human NCI-H1975 cells assessed as early apoptotic cells at 10 uM after 48 hrs by annexin V/FITC-propidium iodide staining-based flow cytometric method ( Rvb = 6.09%); assay type: functional
[29] = test system: NCI-H1975; assay: Induction of apoptosis in human NCI-H1975 cells assessed as late apoptotic cells at 10 uM after 48 hrs by annexin V/FITC-propidium iodide staining-based flow cytometric method ( Rvb = 10.4%); assay type: functional
[30] = test system: NCI-H1975; assay: Induction of apoptosis in human NCI-H1975 cells assessed as necrotic cells at 10 uM after 48 hrs by annexin V/FITC-propidium iodide staining-based flow cytometric method ( Rvb = 1.01%); assay type: functional
[31] = test system: NCI-H1975; assay: Induction of apoptosis in human NCI-H1975 cells assessed as viable cells at 10 uM after 48 hrs by annexin V/FITC-propidium iodide staining-based flow cytometric method ( Rvb = 82.5%); assay type: functional; details: NCI-H1975, 48 h, read-out: Activity
[32] = test system: NCI-H1975; assay: Induction of apoptosis in human NCI-H1975 cells assessed as early apoptotic cells at 20 uM after 48 hrs by annexin V/FITC-propidium iodide staining-based flow cytometric method ( Rvb = 6.09%); assay type: functional
[33] = test system: NCI-H1975; assay: Induction of apoptosis in human NCI-H1975 cells assessed as late apoptotic cells at 20 uM after 48 hrs by annexin V/FITC-propidium iodide staining-based flow cytometric method ( Rvb = 10.4%); assay type: functional
[34] = test system: NCI-H1975; assay: Induction of apoptosis in human NCI-H1975 cells assessed as necrotic cells at 20 uM after 48 hrs by annexin V/FITC-propidium iodide staining-based flow cytometric method ( Rvb = 1.01%); assay type: functional
[35] = test system: NCI-H1975; assay: Induction of apoptosis in human NCI-H1975 cells assessed as viable cells at 20 uM after 48 hrs by annexin V/FITC-propidium iodide staining-based flow cytometric method ( Rvb = 82.5%); assay type: functional; details: NCI-H1975, 48 h, read-out: Activity
[36] = test system: HUVEC; assay: Antimigratory activity against HUVEC after 24 to 48 hrs by phase contrast/fluorescence microscopic analysis; assay type: functional, cell-based; details: Homo sapiens
[37] = test system: Mus musculus; assay: Toxicity in Balb/c mouse implanted with mouse C26 cells assessed as reduction in body weight at 100 mg/kg, po qd treated for 10 days and measured every 2 days; assay type: organism-based; details: in vivo
[38] = test system: HCC827; assay: Potency index, ratio of IC50 for honokiol to IC50 for test compound for antiproliferative activity against human HCC827 cells after 72 hrs by MTT assay; assay type: functional
[39] = test system: NCI-H1975; assay: Potency index, ratio of IC50 for honokiol to IC50 for test compound for antiproliferative activity against human NCI-H1975 cells after 72 hrs by MTT assay; assay type: functional
[40] = test system: NCI-H460; assay: Potency index, ratio of IC50 for honokiol to IC50 for test compound for antiproliferative activity against human H460 cells after 72 hrs by MTT assay; assay type: functional
[41] = test system: HCC827; assay: Potency index, ratio of IC50 for magnolol to IC50 for test compound for antiproliferative activity against human HCC827 cells after 72 hrs by MTT assay; assay type: functional
[42] = test system: NCI-H1975; assay: Potency index, ratio of IC50 for magnolol to IC50 for test compound for antiproliferative activity against human NCI-H1975 cells after 72 hrs by MTT assay; assay type: functional
[43] = test system: NCI-H460; assay: Potency index, ratio of IC50 for magnolol to IC50 for test compound for antiproliferative activity against human H460 cells after 72 hrs by MTT assay; assay type: functional
[44] = test system: Mus musculus; assay: Toxicity in Balb/c mouse implanted with mouse C26 cells assessed as change in body weight at 100 mg/kg, po qd treated for 10 days and measured every 2 days (RVB = 16.4%); assay type: organism-based; details: in vivo
[45] = Antitumor activity against mouse C26 cells implanted in Balb/c mouse assessed as tumor growth inhibition at 100 mg/kg, po qd and measured every 2 days relative to control; assay type: functional; details: 48 h, read-out: TGI
[46] = test system: Mus musculus; assay: Toxicity in Balb/c mouse implanted with mouse C26 cells assessed as mouse death at 100 mg/kg, po qd treated for 10 days; assay type: organism-based; details: in vivo, 240 h

C=CCc1ccc(O)c(-c2cc(CC=C)cc(CN3CCCC(N)C3)c2O)c1 (stereo not drawn)
pIC50 [1]: 5.31 | pIC50 [2]: 5.32 | pIC50 [3]: 5.24 | pIC50 [4]: 5.13 | pIC50 [5]: 5.07 | pIC50 [6]: 5.16 | pIC50 [7]: 4.94 | pIC50 [8]: 5.13 | pIC50 [9]: 5.02 | solubility [10]: 4080 µg/mL (≈ 10.8 mM) | Activity [11]: Dose-dependent effect | Activity [12]: Dose-dependent effect | Activity [13]: Dose-dependent effect | Activity [14]: 65.67% | Activity [15]: 16.29% | Activity [16]: 16.05% | Activity [17]: 70.32% | Activity [18]: 9.26% | Activity [19]: 18.21% | Activity [20]: 79.88% | Activity [21]: 4.75% | Activity [22]: 13.83% | Activity [23]: Dose-dependent effect | Activity [24]: 7.56% | Activity [25]: 22.5% | Activity [26]: 0.74% | viability at 5 µM [27]: 69.2% | Activity [28]: 6.45% | Activity [29]: 28.3% | Activity [30]: 0.65% | viability at 10 µM [31]: 64.6% | Activity [32]: 40.6% | Activity [33]: 57% | Activity [34]: 0.38% | viability at 20 µM [35]: 2.02% | Activity [36]: Dose-dependent effect | Activity [37]: Toxic | Ratio IC50 [38]: 4 | Ratio IC50 [39]: 4 | Ratio IC50 [40]: 4 | Ratio IC50 [41]: 8 | Ratio IC50 [42]: 8 | Ratio IC50 [43]: 8

C=CCc1ccc(O)c(-c2cc(CC=C)cc(CN3CCN(CCOC)CC3)c2O)c1
Activity [44]: 12.4% | pIC50 [1]: 5.17 | pIC50 [2]: 5.15 | pIC50 [3]: 5.23 | pIC50 [4]: 5.10 | pIC50 [5]: 5.14 | pIC50 [6]: 5.29 | pIC50 [7]: 4.87 | pIC50 [8]: 4.99 | pIC50 [9]: 5.13 | solubility [10]: 120 µg/mL (≈ 0.284 mM) | Activity [11]: Dose-dependent effect | Activity [12]: Dose-dependent effect | Activity [13]: Dose-dependent effect | Activity [14]: 61.59% | Activity [15]: 17.71% | Activity [16]: 18.05% | Activity [17]: 66.25% | Activity [18]: 21.85% | Activity [19]: 11.15% | Activity [20]: 69.91% | Activity [21]: 11.17% | Activity [22]: 16.86% | Activity [23]: Dose-dependent effect | Activity [24]: 6.13% | Activity [25]: 22.8% | Activity [26]: 0.47% | viability at 5 µM [27]: 72.6% | Activity [28]: 8.79% | Activity [29]: 22.5% | Activity [30]: 0.31% | viability at 10 µM [31]: 68.4% | Activity [32]: 25.1% | Activity [33]: 51.1% | Activity [34]: 0.9% | viability at 20 µM [35]: 22.9% | Activity [36]: Dose-dependent effect | inhibition in vivo at 100 mg/kg [45]: 4.14% | Activity [46]: Non-Toxic | Ratio IC50 [38]: 4 | Ratio IC50 [39]: 4 | Ratio IC50 [40]: 4 | Ratio IC50 [41]: 8 | Ratio IC50 [42]: 8 | Ratio IC50 [43]: 8
